Assay results taken from patent US12404242B2, “Compositions and methods for making and using small molecules in the treatment of cancer” (Reglagene, Inc., priority 2021, dated 2025).
In brackets after ≈: the same amount, converted by molar mass.

Experiments:
[1] = system: 22RV1 cells; experiment: Cell viability (AlamarBlue), 22RV1 prostate cancer cells; assay type: cell-based, human; settings: 72 hours of treatment
Summary of the method: (§1)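 Cells were plated and, after 24 hours, exposed to the compound at increasing concentrations for 72 hours. Viability was measured by AlamarBlue fluorescence, normalized to untreated controls, and EC50 values were derived from the concentration-response data.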

[2] = system: U87 cells; experiment: Cell viability (AlamarBlue), U87 glioblastoma cells; assay type: cell-based, human; parameters: key to EC50 (μM) in U87 cells: Inactive: less than 50% inhibition at the highest concentration tested at 50 μM; settings: 72 hours of treatment
Summary of the method: as §1

[3] = system: LNCaP cells; experiment: Cell viability (AlamarBlue), LNCaP prostate cancer cells; assay type: cell-based, human; settings: 72 hours of treatment
Summary of the method: as §1

[4] = system: MCF7 cells; experiment: Cell viability (AlamarBlue), MCF7 breast cancer cells; assay type: cell-based; settings: Homo sapiens, 72 hours of treatment
Protocol: (§2) In another exemplary method, half maximal effective concentration (EC50) was determined for some compounds and their isomers as disclosed herein in a variety of human cancer cell lines. In brief, cells from two prostate cancer cell lines (LNCaP, 22RV1), one glioblastoma cell line (U87), one breast cancer cell line (MCF7), a glioma cell line (LN18), a normal prostate cell line (RWPE1), and a glioblastoma cell line (T98G) were plated in a multi-well plate. After 24 hours, one of the compounds herein was added to the well at increasing concentrations. After 72 hours of treatment, cell viability was assessed using AlamrBlue® (Invitrogen) and fluorescence was read using the CLARIOstar Plus Multilabel Plate Reader (BMG Labtech). Samples were normalized to no treatment controls. EC50 values were determined using GraphPad Prism.

[5] = system: RWPE1 cells; experiment: Cell viability (AlamarBlue), RWPE1 normal prostate cells; assay type: cell-based, human; parameters: key to EC50 (μM) in RWPE1 cells: Inactive: less than 50% inhibition at the highest concentration tested at 50 μM; settings: normal prostate cell line; for EC50 (μM) in RWPE1 cells: 72 hours of treatment
Protocol: as §2

[6] = Kinetic solubility in aqueous PBS buffer (HPLC-MS); assay type: physicochemical; settings: kinetic from dmso stock, DMSO stock mixed with aqueous PBS buffer, filtered, read-out: Kinetic Solubility
Protocol: In another exemplary method, central nervous system multiparameter optimization (CNS MPO) score and kinetic solubility of selected compounds was determined. CNS MPO score for compounds and their isomers disclosed herein were calculated using an algorithm that uses a weighted scoring function assessing 6 key physicochemical properties (clogP, clogD, MW, TPSA, HBD, and pKa) for blood-brain-barrier (BBB penetration). CNS MPO score ranged from 0 and 6.0 with scores≥4.0 used as a cut-off to select compounds that can have a high probability of accumulating in the CNS. Kinetic solubility of a compound is the maximum solubility of the fastest precipitating species of the compound. Kinetic solubility was determined by preparing a concentrated stock solution for compounds and their isomers disclosed herein in an organic solvent (DMSO), after which the solution was mixed with an aqueous PBS buffer and then filtered. Filtrate was tested to quantify the kinetic solubilty using HPLC-MS calibration curve. The CNS MPO Score and kinetic solubility of the compounds tested are provided in Table 7 where “ND” means not determined.

[7] = system: tubulin; experiment: Tubulin polymerization assay; assay type: biochemical; settings: 5 uM (FIG. 41A, 41C) or 1 uM (FIG. 41B)
Protocol: FIG. 41A-41C represent exemplary experiments illustrating inhibition of tubulin polymerization. FIG. 41A illustrates effects of compounds 19, 73, 86, 93 and 94 at 5 uM concentration. FIG. 41B illustrates effects of compounds 93, 94, 95 and 96 at 1 uM concentration.
FIG. 41C illustrates effects of compounds 73, 86, 87 and 88 at 5 uM concentration in accordance with certain embodiments of the present disclosure. Colchicine and vincristine are positive controls.
FIG. 42A-42B represent exemplary experiments illustrating inhibition of tubulin polymerization. FIG. 42A illustrates effects of compound 19 at 0.3, 1, 3 and 6 uM concentrations.
FIG. 42B illustrates effects of compound 73 at […] concentration in accordance with certain embodiments of the present disclosure. Colchicine and nocodazole are positive controls.
In another exemplary method, the effect of the compounds herein on tubulin polymerization was determined. FIG. 41A illustrates effects of compounds 19, 73, 86, 93 and 94 at 5 uM concentration, FIG. 41B illustrates effects of compounds 93, 94, 95 and 96 at 1 uM concentration, or FIG. 41C illustrates effects of compounds 87 and 88 at 5 uM concentration in accordance with certain embodiments of the present disclosure. Colchicine and vincristine are positive controls.
The dose dependent effect of compounds 19 and 73 on tubulin polymerization was also determined. FIG. 42A illustrates effects of compound 19 at 0.3, 1, 3 and 6 uM concentrations, and FIG. 42B illustrates effects of compound 73 at 0.1, 0.3, 1, 3 and 5 uM concentration in accordance with certain embodiments of the present disclosure. Colchicine and nocodazole are positive controls.

Compound	EC50 [1]	EC50 [2]	EC50 ([3]; Homo sapiens, LNCaP, 72 h)	EC50 [4]	EC50 (μM) in RWPE1 cells [5]	EC50 [3]	EC50 ([1]; Homo sapiens, 22Rv1, 72 h)	EC50 ([2]; Homo sapiens, U-87 MG, 72 h)	solubility kinetic [6]	EC50 ([5]; Homo sapiens, RWPE-1, 72 hours of treatment)	EC50 (μM) in U87 cells [2]	effect on tubulin polymerization [7]
COC1CC(C(=O)NC(=O)Nc2ccc(Oc3ccc(C#N)cn3)c(C)c2)C1 (single isomer, unassigned) [Compound 16A, N-((4-((5-cyanopyridin-2-yl)oxy)-3-methylphenyl)carbamoyl)-3-methoxycyclobutane-1-carboxamide]	5.8 µM	10 µM	2.9 µM	12.7 µM	Inactive	–	–	–	–	–	–	–
COC1CC(C(=O)NC(=O)Nc2ccc(Oc3ncc(Cl)cn3)c(C)c2)C1 (single isomer, unassigned) [Compound 20A, N-((4-((5-chloropyrimidin-2-yl)oxy)-3-methylphenyl)carbamoyl)-3-methoxycyclobutane-1-carboxamide]	1.5 µM	2.6 µM	–	5.8 µM	Inactive	0.87 µM	–	–	–	–	–	–
COC1CCC(C(=O)NC(=O)Nc2ccc(Oc3ncc(Cl)cn3)c(C)c2)CC1 (centres unmarked) [Compound 1, N-((4-((5-chloropyrimidin-2-yl)oxy)-3-methylphenyl)carbamoyl)-4-methoxycyclohexane-1-carboxamide]	–	–	2.4 µM	3.4 µM	Inactive	–	3.7 µM	6 µM	4.9 µM (≈ 2.05 µg/mL)	–	–	–
COC1CCC(C(=O)NC(=O)Nc2ccc(Oc3ccc(Cl)cn3)c(C)c2)CC1 (centres unmarked) [Compound 7, N-((4-((5-chloropyridin-2-yl)oxy)-3-methylphenyl)carbamoyl)-4-methoxycyclohexane-1-carboxamide]	–	–	2.8 µM	2.4 µM	Inactive	–	2.9 µM	4.4 µM	0.49 µM (≈ 0.205 µg/mL)	–	–	–
COC1CCC(C(=O)NC(=O)Nc2ccc(Oc3ncc(F)cn3)c(C)c2)CC1 (centres unmarked) [Compound 8, 3-{4-[(5-fluoropyrimidin-2-yl)oxy]-3-methylphenyl}-1-(4-methoxycyclohexanecarbonyl)urea]	–	–	27.5 µM	24.3 µM	Inactive	–	26 µM	36 µM	–	–	–	–
COC1CCC(C(=O)NC(=O)Nc2ccc(Oc3ccc(F)cn3)c(C)c2)CC1 (centres unmarked) [Compound 9, 3-{4-[(5-fluoropyridin-2-yl)oxy]-3-methylphenyl}-1-(4-methoxycyclohexanecarbonyl)urea]	–	–	11.5 µM	8.5 µM	Inactive	–	5.1 µM	4.9 µM	–	–	–	–
COC1CCC(C(=O)NC(=O)Nc2ccc(Oc3ncccn3)c(C)c2)CC1 (centres unmarked) [Compound 10, 1-(4-methoxycyclohexanecarbonyl)-3-[3-methyl-4-(pyrimidin-2-yloxy)phenyl]urea]	–	–	13 µM	12.9 µM	Inactive	–	12.5 µM	33.5 µM	–	–	–	–
COC1CCC(C(=O)NC(=O)Nc2ccc(Oc3ccc(Cl)cn3)c(F)c2)CC1 (centres unmarked) [Compound 12, N-((4-((5-chloropyridin-2-yl)oxy)-3-fluorophenyl)carbamoyl)-4-methoxycyclohexane-1-carboxamide]	–	–	3.1 µM	1.9 µM	–	–	1.9 µM	1.9 µM	0.28 µM (≈ 0.118 µg/mL)	6.1 µM	–	–
Cc1cc(NC(=O)NC(=O)C2CCCCC2)ccc1Oc1ncc(Cl)cn1 [Compound 71, N-((4-((5-chloropyrimidin-2-yl)oxy)-3-methylphenyl)carbamoyl)cyclohexanecarboxamide]	–	–	10.4 µM	9.4 µM	Inactive	–	12.5 µM	–	–	–	Inactive	–
COC12CC(C(=O)NC(=O)Nc3ccc(Oc4ccccn4)c(C)c3)(C1)C2 [Compound 86, 3-methoxy-N-((3-methyl-4-(pyridin-2-yloxy)phenyl)carbamoyl)bicyclo[1.1.1]pentane-1-carboxamide]	–	–	–	–	–	–	–	0.26 µM	–	–	–	significantly inhibit tubulin polymerization
COC12CC(C(=O)NC(=O)Nc3ccc(Oc4ncccn4)c(C)c3)(C1)C2 [Compound 87, 3-methoxy-N-((3-methyl-4-(pyrimidin-2-yloxy)phenyl)carbamoyl)bicyclo[1.1.1]pentane-1-carboxamide]	–	–	–	–	–	–	–	1.2 µM	27.5 µM (≈ 10.1 µg/mL)	–	–	significantly inhibit tubulin polymerization
COC12CC(C(=O)NC(=O)Nc3ccc(Oc4ncc(F)cn4)c(C)c3)(C1)C2 [Compound 88, N-((4-((5-fluoropyrimidin-2-yl)oxy)-3-methylphenyl)carbamoyl)-3-methoxybicyclo[1.1.1]pentane-1-carboxamide]	–	–	–	–	–	–	–	1.45 µM	10.9 µM (≈ 4.21 µg/mL)	–	–	significantly inhibit tubulin polymerization
COC1CC(C(=O)NC(=O)Nc2ccc(C)c(Oc3ccccn3)c2)C1 (centres unmarked) [Compound 94, 3-methoxy-N-((4-methyl-3-(pyridin-2-yloxy)phenyl)carbamoyl)cyclobutane-1-carboxamide]	–	–	–	–	–	–	–	0.045 µM	11.8 µM (≈ 4.19 µg/mL)	–	–	significantly inhibit tubulin polymerization
COC1CC(C(=O)NC(=O)Nc2ccc(C)c(Oc3ccc(F)cn3)c2)C1 (centres unmarked) [Compound 95, N-((3-((5-fluoropyridin-2-yl)oxy)-4-methylphenyl)carbamoyl)-3-methoxycyclobutane-1-carboxamide]	–	–	–	–	–	–	–	0.014 µM	7.2 µM (≈ 2.69 µg/mL)	–	–	significantly inhibit tubulin polymerization
COC1CC(C(=O)NC(=O)Nc2ccc(C)c(Oc3ncccn3)c2)C1 (centres unmarked) [Compound 96, 3-methoxy-N-((4-methyl-3-(pyrimidin-2-yloxy)phenyl)carbamoyl)cyclobutane-1-carboxamide]	–	–	–	–	–	–	–	0.035 µM	14.8 µM (≈ 5.27 µg/mL)	–	–	significantly inhibit tubulin polymerization
